Source: US11771086B2, “Pest control composition including novel iminopyridine derivative” (priority 2012, dated 2023)

Columns and labels:
Laodelphax striatella [1] = assay: whole plant or invertebrate; conditions: Laodelphax striatellus, soil, 72 h, soil irrigation; for mortality at 0.005 mg/seedling: read-out: Mortality of single agent against Laodelphax striatella, single agent 0.005 mg/Seedling
Procedure: After the rice seedling was left to stand for 3 days, second instar larvae were released thereto. Thereafter, the larvae were left to stand in a thermostatic chamber (16 hours of light period-8 hours of dark period) at 25° C. […] The test was performed in duplicate. Mortality of larvae (%)={number of dead larvae/(number of survived larvae+number of dead larvae)}×100
B: 100−(mortality of larvae or adults when treated only with each of imidacloprid, fipronil, chlorantraniliprole, spinosad, clothianidin, dinotefuran, sulfoxaflor, pymetrozine, thiamethoxam, flupyradifurone and cycloxaprid))
(§1) Method for Judging Synergistic Effects
When the mortality against Laodelphax striatella in the case of a mixture with another agent exceeded the theoretical value by the Colby's equation, a synergistic effect was judged to be present.

[2] = assay type: in vivo; conditions: single agent 0.125 mg/seedling; soil irrigation; seven days after inoculation
Plutella xylostella [3] = assay: whole plant or invertebrate; assay type: in vivo
Procedure: (§2) After an air drying process, second instar larvae were released thereto. […] The test was performed in duplicate.
as §1

Chilo suppressalis = assay type: in vivo; conditions: single agent 0.0005 mg/seedling; soil irrigation; six days after release
Procedure: After standing for 3 days, second instar larvae were released thereto. […] The test was performed in duplicate.
as §1

Naranga aenescens = assay type: in vivo; conditions: single agent 0.01 mg/seedling; soil irrigation; five days after release
Procedure: After standing for 3 days, first instar larvae were released thereto. […] The test was performed in duplicate.
as §1

Callosobruchus chinensis = assay type: in vivo; conditions: single agent 0.2 ng/head; topical; one day
Procedure: A compound of Formula (I) and the insecticide indicated below, prepared in predetermined concentrations using acetone, were separately topically applied to the back of the same adult Callosobruchus chinensis. […] The test was performed in duplicate. Insect mortality (%)={number of dead insects/(number of survived insects+number of dead insects)}×100
(A: 100−(insect mortality for treatment with only Compound P212)
B: 100−(insect mortality for treatment with only the insecticide fipronil or imidacloprid))
as §1

Plutella xylostella [4] = assay: Reference Test Example 1 Pest control test of Plutella xylostella (foliar treatment, single agent); assay type: in vivo
Source text: (§3) After an air drying process, second instar larvae were released thereto. […] Test in duplicate.

Spodoptera litura = assay: Reference Test Example 2 Pest control test of Spodoptera litura (foliar treatment, single agent); assay type: in vivo; conditions: 72 h
Source text: After an air drying process, third instar larvae were released thereto. […] Test in duplicate.

Aphis gossypii [5] = assay: Reference Test Example 3 Pest control test of Aphis gossypii (foliar treatment, single agent); assay type: in vivo
Procedure: After an air drying process, first instar larvae were released thereto. Thereafter, the larvae were left to stand in a thermostatic chamber (16 hours of light period-8 hours of dark period) at 25° C. […] Test in duplicate. Mortality (%)={number of dead larvae/(number of survived larvae+number of dead larvae)}×100

Laodelphax striatella [6] = assay: Reference Test Example 4 Pest control test of Laodelphax striatella (foliar treatment, single agent); assay type: in vivo; conditions: Laodelphax striatellus, 72 h
Source text: as §3

Nilaparvata lugens = assay: Reference Test Example 5 Pest control test of Nilaparvata lugens (foliar treatment, single agent); assay type: in vivo; conditions: 144 h
Source text: as §3

Sogatella furcifera = assay: Reference Test Example 6 Pest control test of Sogatella furcifera (foliar treatment, single agent); assay type: in vivo; conditions: 96 h
Source text: as §3

[7] = system: Frankliniella occidentalis; assay: Reference Test Example 9 Pest control test of Frankliniella occidentalis (foliar treatment, single agent); assay type: in vivo; conditions: 72 h
Procedure: After an air drying process, first instar larvae were released to the leaf disk. Thereafter, the larvae were left to stand in a thermostatic chamber (16 hours of light period-8 hours of dark period) at 25° C. […] Test in duplicate. Mortality of larvae (%)={number of dead larvae/(number of survived larvae+number of dead larvae)}×100

[8] = system: Trigonotylus caelestialium; assay: Reference Test Example 10 Pest control test of Trigonotylus caelestialium (dipping treatment); assay type: in vivo; conditions: 72 h
Procedure: After an air drying process, the wheat seedling leaves and stems were placed into a glass tube, and two second instar larvae of Trigonotylus coelestialium were released to the same glass tube. After the larvae were released, the tube was lidded to leave the larvae to stand in a thermostatic chamber at 25° C. In order to supply water to the wheat during the test, water was given to the wheat from the bottom of the glass tube. […] Test in triplicate.

Laodelphax striatella [9] = assay: Reference Test Example 18 Pest control test of Laodelphax striatella (wheat seedling root treatment); assay type: in vivo; conditions: wheat seedling roots treated; four days after release; 20 μg/seedling
Procedure: The drug was absorbed from the roots for 72 hours, and then ten second instar larvae of Laodelphax striatella were each released thereto. […] The test was performed in duplicate.

[10] = system: Nilaparvata lugens susceptible species (highly susceptible to imidacloprid); assay: Reference Test Example 19 Pest control test of Nilaparvata lugens, imidacloprid susceptible species (soil drench); assay type: in vivo; conditions: for Insecticidal effects against Nilaparvata lugens (death rate %), Susceptible population: soil drench, six days
Procedure: (§4) Three days after the treatment, ten second instar larvae of Nilaparvata lugens, which had been collected outdoors and proliferated indoors, were each released to the rice seedling. […] Test in duplicate.
(§5) Furthermore, for comparison, the test against a species of Nilaparvata lugens which is highly susceptible to imidacloprid was performed by the same method as described above, and the results thereof are shown in Table 45. […] Meanwhile, the death rates of imidacloprid at 0.05 mg/seedling were (susceptible species) 100%, (resistant population I) 38% and (resistant population II) 69%, and the insecticidal effect thereof was also low even at a high dose. From the above results, it became obvious that Compound P212 and Compound 1-20 have high insecticidal effects even against Nilaparvata lugens resistance against imidacloprid.
(§6) Further, for the origin of test pests, bugs collected outdoors from the Kumamoto prefecture (I) in 2007 and from the Fukuoka prefecture (II) in 2005 as resistant population of Nilaparvata lugens, and bugs collected from the Kagoshima prefecture and then successively reared indoors for a long time as the imidacloprid susceptible population of Nilaparvata lugens were used.

[11] = system: Nilaparvata lugens resistant population I; assay: Reference Test Example 19 Pest control test of Nilaparvata lugens, resistant population I (soil drench); assay type: in vivo; conditions: for Insecticidal effects against Nilaparvata lugens (death rate %), Resistant population I: soil drench, six days
Procedure: as §4, §5, §6

[12] = system: Nilaparvata lugens resistant population II; assay: Reference Test Example 19 Pest control test of Nilaparvata lugens, resistant population II (soil drench); assay type: in vivo; conditions: for Insecticidal effects against Nilaparvata lugens (death rate %), Resistant population II: soil drench, six days
Procedure: as §4, §5, §6

Laodelphax striatella [13] = assay: whole plant or invertebrate; assay type: in vivo
Procedure: as §2, §1

Aphis gossypii [14] = assay: whole plant or invertebrate; assay type: in vivo; conditions: Aphis gossypii
Procedure: The test was performed in duplicate.
as §1

SMILES: C=CCOC1=NS(=O)(=O)c2ccccc21 [Probenazole]
- mortality at 0.5 mg/seedling (Laodelphax striatella [1]; read-out: Mortality of single agent against Laodelphax striatella, single agent 0.5 mg/Seedling): 9%
- Preventive value (rice blast, number of lesions) [2]: 96.7

SMILES: N#Cc1nn(-c2c(Cl)cc(C(F)(F)F)cc2Cl)c(N)c1[S+]([O-])C(F)(F)F (stereo not shown) [Fipronil]
- mortality at 0.001 mg/seedling (Laodelphax striatella [1]; read-out: Mortality of single agent against Laodelphax striatella, single agent 0.001 mg/Seedling): 0%
- mortality at 0.005 mg/seedling (Laodelphax striatella [1]): 26%
- Theoretical value by Colby's equation (Plutella xylostella [3]; 0.04 ppm): 50%
- mortality at 0.04 ppm (Plutella xylostella [3]; Plutella xylostella, foliar, 72 h, read-out: Mortality of single agent against Plutella xylostella, single agent 0.04 ppm, cabbage leaf disk spray, three days): 50%
- Mortality of single agent against Chilo suppressalis (Chilo suppressalis): 40%
- Mortality of single agent against Naranga aenescens (Naranga aenescens): 20%
- Mortality of single agent against Callosobruchus chinensis (Callosobruchus chinensis): 0%

SMILES: FC(F)(F)C(=S)/N=c1\ccccn1Cc1ccc(Cl)nc1 [Compound 1-20, N-[1-((6-chloropyridin-3-yl)methyl)pyridin-2(1H)-ylidene]-2,2,2-trifluoroethanethioamide]
- mortality at 100 ppm (Plutella xylostella [4]; Plutella xylostella, foliar, 72 h): ≥ 80%
- Plutella xylostella (Reference Test Example 1), mortality of larvae (Plutella xylostella [4]; foliar treatment, single agent): 100%
- mortality at 500 ppm (Spodoptera litura): ≥ 80%
- mortality at 100 ppm (Aphis gossypii [5]; Aphis gossypii, foliar, 72 h): ≥ 80%
- Aphis gossypii (Reference Test Example 3), mortality of larvae (Aphis gossypii [5]; foliar treatment, single agent): 100%
- mortality at 100 ppm (Laodelphax striatella [6]): ≥ 80%
- mortality at 100 ppm (Nilaparvata lugens): ≥ 80%
- mortality at 100 ppm (Sogatella furcifera): ≥ 80%
- mortality at 500 ppm [7]: ≥ 80%
- mortality at 50 ppm [8]: ≥ 80%
- Laodelphax striatella (Reference Test Example 18), mortality of larvae (Laodelphax striatella [9]): 100%
- death rates of larvae ([10]; susceptible species, 0.005 mg/seedling, six days after the release): 100%
- Insecticidal effects against Nilaparvata lugens (death rate %), Susceptible population ([10]; throughput 0.005 mg/seedling): 100%
- Insecticidal effects against Nilaparvata lugens (death rate %), Susceptible population ([10]; throughput 0.01 mg/seedling): 95%
- death rates of larvae ([11]; resistant population I, 0.005 mg/seedling, six days after the release): 77%
- Insecticidal effects against Nilaparvata lugens (death rate %), Resistant population I ([11]; throughput 0.005 mg/seedling): 77%
- Insecticidal effects against Nilaparvata lugens (death rate %), Resistant population I ([11]; throughput 0.01 mg/seedling): 100%
- death rates of larvae ([12]; resistant population II, 0.005 mg/seedling, six days after the release): 85%
- Insecticidal effects against Nilaparvata lugens (death rate %), Resistant population II ([12]; throughput 0.005 mg/seedling): 85%
- Insecticidal effects against Nilaparvata lugens (death rate %), Resistant population II ([12]; throughput 0.01 mg/seedling): 100%
- mortality at 0.005 mg/seedling (Laodelphax striatella [1]): 12%
- Theoretical value by Colby's equation (Laodelphax striatella [13]; Laodelphax striatella foliar, single agent 0.625 ppm (other component 0)): 90%
- mortality at 0.625 ppm (Laodelphax striatella [13]; Laodelphax striatellus, foliar, 72 h, read-out: Mortality of single agent against Laodelphax striatella): 90%
- mortality at 0.625 ppm (Aphis gossypii [14]; foliar, 72 h, read-out: Mortality of single agent against Aphis gossypii): 19%
- Theoretical value by Colby's equation (Aphis gossypii [14]; single agent 0.625 ppm (other component 0)): 19%
